# Experimental data from patent US7973066B2, “Pyrrolo[1,2-A]imidazoledione effective in the treatment of peripheral neurotoxicity induced by chemotherapeutic agents” (Neurotune AG, priority 2006, dated 2011).
# Like-named read-outs stand apart in the source and are kept apart here.
# Experiments:
# [1] = system: Vincristine-induced peripheral neuropathy; test: Vincristine-induced peripheral neuropathy, paw pressure test; format: in vivo, rat; details: for anti-hyperalgesic effect on mechanical hyperalgesia after repeated treatment: 30 mg/kg i.p. daily during last five days of vincristine, 1 hr and 12 hr after last administration; for reversal of vincristine mechanical hyper-sensitivity (paw pressure threshold): 100 mg/kg p.o., 30 and 60 min after treatment, 4 days after last vincristine injection; for activity on vehicle treated animals (paw pressure): vehicle treated rats, p.o.
# Protocol: Vincristine was administered i.v. (150 μg/kg), every two days until a cumulative dose of 750 μg/kg was reached. Paw mechanical iper-sensitivity was evaluated 4 days after the last vincristine injection (Marchand F. et al. 2003, Brain Res. 980:117-120).
# (§1) When a chemotherapeutic injection was to be given on a same day as behavioural testing, rats were injected after the measurement was taken.
# (§2) Paw mechanical iper-sensitivity was determined using a Randall & Selitto apparatus exerting a force that increases at constant rate (32 g/s) in agreement with Leighton G. E. et al. (1988, Br. J. Pharmacol 93:553-560). The stimulus at which rats withdraw the paw was evaluated before and at different times after drugs treatment. Results represent the mean of mechanical thresholds expressed as grams. To avoid any possible damage to the animal paw the maximum applied force was fixed at 240 g.
# [2] = system: Taxol-induced peripheral neuropathy; test: Taxol-induced peripheral neuropathy, paw pressure test; format: in vivo, rat; details: for anti-hyperalgesic activity, i.v.: 3 mg/kg i.v.; for anti-hyperalgesic activity, i.v. / anti-hyperalgesic activity, i.p.: 30-90 min from administration; for anti-hyperalgesic activity, i.p.: 30 mg/kg i.p.; for rat paw pressure threshold, anti-hyperalgesic effect: 100 mg/kg given orally, 30 and 60 min after treatment
# Protocol: Taxol neuropathy was induced by i.p. administration (0.5 mg/kg) once a day, on days 1, 3, 5, 8. Cumulative taxol dose was 2 mg/kg. The pharmacological test was performed 14-18 days after the last taxol injection (Polomano R. C. et al. 2001, Pain 94:293-304).
# as §1, §2
# [3] = system: Oxaliplatin-induced peripheral neuropathy; test: Oxaliplatin-induced peripheral neuropathy, paw pressure test; format: in vivo, rat; details: for prevention of oxaliplatin-induced decrease of mechanical threshold: 100 mg/kg p.o. once daily starting three days before oxaliplatin, tested every week 30 min after administration; for effects on vehicle treated animals (paw pressure): vehicle treated rats
# Protocol: The cumulative dose of oxliplatin was 36 mg/kg (Cavaletti G. et al. 2001, Eur. J. Cancer 37:2457-2463).
# as §1, §2
# Maximum hyperalgesia was obtained after a two weeks period of treatment. […] Compound administration was performed in the same days of chemotherapeutic injection.
# CIPN [4] = details: cancer patients with CIPN; cited from earlier work
# CIPN [5] = details: phase III, 10 weeks of therapy; cited from earlier work
# [6] = system: cisplatin-induced pain syndrome; details: 51 patients, maximum dose 100 mg/day; cited from earlier work
# [7] = system: HT29 human colon carcinoma cell line; test: In vitro cytotoxicity and combination studies, ATPlite; details: for IC50: read-out: cytotoxic effect IC50
# Protocol: In order to verify if the use of NiK-13317 for the treatment of CIPN would not affect the efficacy of anticancer treatments, the effect of NiK-13317 on cytotoxicity of known anticancer drugs was examined in vitro using HT29 human colon carcinoma cell line.
# After 72 hours, cells were lysed and cell metabolic activity was quantified with ATPlite kit (Perkin Elmer Life Science) following manufacturer's recommendations. The ATP present in all metabolically active cells catalyses a reaction of transformation of D-luciferin by Luciferase, producing a luminescent signal measured using VICTOR^3™ Multi Label Reader (Perkin Elmer). Results were expressed as percentage of luminescence produced (i.e. ATP produced) compared to the control. Complete concentration-response curves with anticancer drugs were constructed in order to identify the concentrations producing a submaximal and a maximal cytotoxic effect, to be utilized for combination experiments.
smiles,measurement,setting,value
"Cc1ccc(N2C(=O)CN3C(=O)CCC32)cc1 (racemic) [NiK-13317, racemic 1-(4-Methylphenyl)dihydro-1H-pyrrolo[1,2-a]imidazole-2,5(3H,6H)-dione]",anti-hyperalgesic effect on mechanical hyperalgesia after repeated treatment,[1],statistically significant (p<0.01) anti-hyperalgesic effect
same,development of tolerance after repeated treatment,"[1]; 30 mg/kg i.p. daily, 5 days",without development of tolerance
same,anti-hyperalgesic effect 23 hr after the 4th administration,"[1]; 30 mg/kg i.p. daily, 23 hr after 4th administration (1 hr before last injection)",statistically significant effect (p<0.05)
same,reversal of vincristine mechanical hyper-sensitivity (paw pressure threshold),[1],pronounced significant reversal
same,activity on vehicle treated animals (paw pressure),[1],devoid of any significant activity
same,"anti-hyperalgesic activity, i.v.",[2],active
same,"anti-hyperalgesic activity, i.p.",[2],active
same,"rat paw pressure threshold, anti-hyperalgesic effect",[2],significantly increased
same,prevention of oxaliplatin-induced decrease of mechanical threshold,[3],completely prevented
same,"anti-hyperalgesic activity, pharmacodynamic experiment, 8 hr","[3]; after 3 weeks of oxaliplatin, 100 mg/kg p.o., 8 hr after treatment",still active
same,"anti-hyperalgesic activity, pharmacodynamic experiment, 30 min and 4 hr","[3]; after 3 weeks of oxaliplatin, given orally, 30 min and 4 hr after administration",active
same,effects on vehicle treated animals (paw pressure),[3]; p.o.,Neither NiK-13317 or gabapentin induced significant effects
"Cc1ccc(N2C(=O)CN3C(=O)CCC32)cc1 (single isomer, unassigned) [compound of formula (I), 1-(4-Methylphenyl)dihydro-1H-pyrrolo[1,2-a]imidazole-2,5(3H,6H)-dione]",development of tolerance (general statement),"[1]; rat, in vivo",not to develop tolerance
NCC1(CC(=O)O)CCCCC1 [gabapentin],adverse side effects such as nystagmus and dizziness,CIPN [4],significant more adverse side effects
same,"reduction of pain intensity (NRS score), sensory neuropathy (ECOG rating), and other adverse events",CIPN [4],failed to reduce
same,anti-hyperalgesic effect on mechanical hyperalgesia after repeated treatment,[1],no significant effects
same,reversal of vincristine mechanical hyper-sensitivity (paw pressure threshold),[1],lacked of any significant effects
same,activity on vehicle treated animals (paw pressure),[1],devoid of any significant activity
same,"anti-hyperalgesic activity, i.v.",[2],lacked of any significant effect
same,"anti-hyperalgesic activity, i.p.",[2],lacked of any significant effect
same,"rat paw pressure threshold, anti-hyperalgesic effect",[2],not able to induce any anti-hyperalgesic effect
same,prevention of oxaliplatin-induced decrease of mechanical threshold,[3],only a moderated anti-hyperalgesic effect
same,"anti-hyperalgesic activity, pharmacodynamic experiment, 30 min","[3]; after 3 weeks of oxaliplatin, p.o., 30 min after treatment",only a moderate effect
same,effects on vehicle treated animals (paw pressure),[3]; p.o.,Neither NiK-13317 or gabapentin induced significant effects
Nc1nnc(-c2cccc(Cl)c2Cl)c(N)n1 [lamotrigine],reduction of CIPN,CIPN [5],failed to reduce CIPN
CNCCC=C1c2ccccc2CCc2ccccc21 [nortriptyline],efficacy over placebo on cisplatin-induced pain syndrome,[6],lack of nortriptyline efficacy over placebo
O=C1[O][Pt]2([NH][C@@H]3CCCC[C@H]3[NH]2)[O]C1=O [oxaliplatin],IC50,"[7]; HT29 cells, 72 hours, ATPlite",36000 nM
same,paw pressure threshold change caused by repeated oxaliplatin,"[3]; oxaliplatin 2.4 mg/kg i.p., 5 consecutive days every week, evident from first week",decrease in paw pressure threshold
CC(=O)O[C@H]1C(=O)[C@@]2(C)[C@H]([C@H](OC(=O)c3ccccc3)[C@]3(O)C[C@H](OC(=O)[C@H](O)[C@@H](NC(=O)c4ccccc4)c4ccccc4)C(C)=C1C3(C)C)[C@]1(OC(C)=O)CO[C@@H]1C[C@@H]2O [taxol],mechanical hyperalgesia produced by taxol treatment,"[2]; taxol 0.5 mg/kg i.p. on days 1, 3, 5, 8",significant mechanical hyperalgesia
same,concentration of maximal cytotoxic effect,"[7]; HT29 cells, 72 hours, ATPlite",100 nM
same,IC50,"[7]; Homo sapiens, HT-29, 72 h",8 nM
CC[C@]1(O)C[C@H]2CN(CCc3c([nH]c4ccccc34)[C@@](C(=O)OC)(c3cc4c(cc3OC)N(C=O)[C@H]3[C@@](O)(C(=O)OC)[C@H](OC(C)=O)[C@]5(CC)C=CCN6CC[C@]43[C@@H]65)C2)C1 [vincristine],mechanical hyperalgesia produced by vincristine treatment (reduction of paw pressure threshold),"[1]; vincristine 150 μg/kg i.v. every two days, cumulative 750 μg/kg",marked and prolonged mechanical hyperalgesia
same,concentration of maximal cytotoxic effect,"[7]; HT29 cells, 72 hours, ATPlite",100 nM
same,IC50,"[7]; Homo sapiens, HT-29, 72 h",7 nM
